Data reported in patent US12410155B2, “Salt form and crystal form of tetrahydrocyclohepta indazole compound” (Zhejiang Yangli Pharmaceutical Technology Co., Ltd., priority 2021, dated 2025).
Where two headings read alike, the source gives them in different places.

Assays:
ERα [1] = target: T1, ERα (Homo sapiens, UniProt P03372); assay: HEK293/GAL4/ERα antagonist assay (luciferase reporter); type: cell-based; conditions: 1 nM estradiol, read-out: IC50 (nM), antagonistic effect
T1 sequence (P03372 311-547 limits assumed): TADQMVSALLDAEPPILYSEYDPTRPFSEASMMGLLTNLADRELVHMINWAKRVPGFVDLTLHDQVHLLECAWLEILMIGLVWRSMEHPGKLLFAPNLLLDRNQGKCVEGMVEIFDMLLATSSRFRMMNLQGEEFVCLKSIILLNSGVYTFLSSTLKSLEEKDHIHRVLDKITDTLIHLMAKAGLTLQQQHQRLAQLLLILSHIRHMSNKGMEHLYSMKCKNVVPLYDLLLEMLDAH
Method: (2) HEK293/GAL4/ERα Antagonist Assay
DMEM (without phenol red) containing 10% charcoal-stripped serum (i.e., 450 mL DMEM and 50 mL charcoal-stripped serum in 500 mL medium)
The antagonistic effect of the compound of formula (I) on ERα, was analyzed using triplicate wells with compound concentration ranging from 200 nM to 0.00256 nM.
• 1) The HEK293/GAL4/ERα cell suspension was collected and centrifuged at 1000 rpm for 5 minutes. The supernatant was discarded, and the cells were resuspended in pre-warmed experimental medium. After counting, the cell suspension was diluted with experimental medium. 40000 cells per well were seeded into a 96-well cell culture plate, with 80 μL of cell suspension per well. […] Subsequently, 10 μL of assay medium containing 10 nM estradiol was added to each well. For blank controls, 10 μL of assay medium was added. A final estradiol concentration of 1 nM was ensured. […] The plate was incubated at 25° C. for 2 minutes. After incubation, the luminescence signal was then detected using an EnVision plate reader. Data Analysis:
GraphPad Prism software was used to plot the data and calculate the IC50 values for the compound.

ERα [2] = target: T2, ERα (Homo sapiens, UniProt P03372); assay: ERα degradation assay (ICW) in MCF-7, T-47D and CAMA-1 cells; type: cell-based; conditions: 4 hours, read-out: IC50 (nM), degradation effect on ERα
T2 construct: degradation effects on ERα in various breast cancer cell lines; endogenous in cells; host or cells: MCF-7, T-47D, CAMA-1
T2 sequence (P03372 1-595): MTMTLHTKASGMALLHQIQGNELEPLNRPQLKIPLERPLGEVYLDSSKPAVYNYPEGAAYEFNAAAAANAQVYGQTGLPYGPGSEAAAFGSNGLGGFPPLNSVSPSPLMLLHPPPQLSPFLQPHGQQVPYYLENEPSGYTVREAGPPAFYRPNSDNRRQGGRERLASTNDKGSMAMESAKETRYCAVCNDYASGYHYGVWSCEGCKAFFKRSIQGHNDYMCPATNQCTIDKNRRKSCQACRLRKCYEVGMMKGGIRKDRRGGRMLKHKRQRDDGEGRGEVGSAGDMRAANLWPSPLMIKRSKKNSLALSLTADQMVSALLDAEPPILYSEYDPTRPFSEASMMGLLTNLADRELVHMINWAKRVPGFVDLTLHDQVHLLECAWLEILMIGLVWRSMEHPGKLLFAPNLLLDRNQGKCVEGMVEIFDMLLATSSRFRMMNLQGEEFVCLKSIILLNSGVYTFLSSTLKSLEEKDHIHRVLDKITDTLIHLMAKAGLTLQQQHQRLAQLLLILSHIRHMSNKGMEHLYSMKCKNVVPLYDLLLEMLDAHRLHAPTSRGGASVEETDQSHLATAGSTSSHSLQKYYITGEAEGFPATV
Method: (3) ERα Degradation Assay in MCF-7, T-47D, and CAMA-1 Cells
• 1) The complete culture medium was aspirated from the culture flask, followed by the addition of an appropriate amount of trypsin for rinsing. The trypsin solution was then aspirated to remove residual serum. • 2) Subsequently, an appropriate amount of trypsin was added for a second rinse and aspirated. The culture flask was placed in an incubator for 2-3 minutes, then removed, and gently agitated to detach the cells. • 3) The cells were resuspended in fresh complete culture medium and counted using a cell counter. • 4) The cell suspension was prepared according to the required plating density. • 5) A volume of 30.0 μL of the cell suspension was added to each well of a 384-well plate. • 6) The experimental plate was placed in a centrifuge and centrifuged at 1000 rpm for 1 minute. • 7) The experimental plate was then incubated overnight in a cell incubator. • 8) According to the sample addition diagram of experimental plate (refer to 3.5.1), 20.0 μL of the diluted test sample was added to each well. […] The plate was incubated at 4° C. overnight. • 19) The primary antibody solution in the plate was discarded, and the plate was washed five times with PBS using a multidrop. • 20) A mixture of 25 μL of secondary antibody and DRAQ5 was added to each well, and incubated at room temperature for 1 hour. • 21) The plate was washed five times with PBS using a multidrop. • 22) The plate was washed with ddH2O twice, and patted dry. • 23) The plate was subsequently read using the Odyssey infrared imaging system. […]
The IC50 values were calculated using GraphPad Prism 7.0, a data analysis software.
This experiment evaluated the effect of compound of formula (I) on the expression of ERα protein in MCF-7, T-47D, and CAMA-1 cells. The expression levels of ERα protein were detected using the ICW assay after 4 hours of drug treatment.

## FCCCN1CC[C@H](Nc2cnc(C3=C(CC(F)(F)F)CCCc4c3ccc3[nH]nc(F)c43)cn2)C1 [Compound of formula (I)]
ERα [1]; Mean ± SD
  IC50: 0.0857 ± 0.0103 nM
ERα [1]; N = 1
  IC50: 0.096 nM
ERα [1]; N = 2
  IC50: 0.075 nM
ERα [2]; CAMA-1 cells
  DC50: 1.25 nM
ERα [2]; MCF-7 cells
  DC50: 0.235 nM
ERα [2]; T-47D cells
  DC50: 0.78 nM
